Test system: 317291-083-R-J1-PDC complex spheroid growth
Experiment: Anticancer human tumor 317291-083-R-J1-PDC patient-derived soft tissue sarcoma cell line growth inhibition [Asc]
Details: for IC50: curve of first compound; for viability, T/C: stronger effect = lower value
Procedure, shortened: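 Complex spheroids combining tumor cells with HUVEC endothelial cells and human MSCs, at 37 degrees C, 5% CO2; agents tested alone or combined, half-log dilutions from at or near clinical Cmax, or 10 microM if Cmax unknown.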
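Also: compound exposure lasted seven days after spheroids formed for three days.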
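For viability, T/C in this document: 100% = DMSO vehicle control wells.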

Compound: C=CC(=O)N1CCN(c2nc(=O)n(-c3c(C)ccnc3C(C)C)c3nc(-c4c(O)cccc4F)c(F)cc23)C(C)C1 (configuration not stated) + CNC(C)C(=O)NC1CN(S(=O)(=O)c2cccc(S(=O)(=O)N3CCC4CCC(C(=O)NC(c5ccccc5)c5ccccc5)N4C(=O)C(NC(=O)C(C)NC)C3)c2)CCC2CCC(C(=O)NC(c3ccccc3)c3ccccc3)N2C1=O
- IC50 (second compound 0.00316 µM): 9.72 µM
- IC50 (second compound 0.01 µM): > 10 µM
- IC50 (second compound 0.0316 µM): 5.56 µM
- IC50 (second compound 0.1 µM): 4.4 µM
- IC50 (second compound 0.316 µM): 1.09 µM
- IC50 (second compound 1 µM): < 0.0316 µM
- viability, T/C (second compound 0.00316 µM, first compound 0.0316 µM): 96%
- viability, T/C (second compound 0.00316 µM, first compound 0.1 µM): 100%
- viability, T/C (second compound 0.00316 µM, first compound 0.316 µM): 85.2%
- viability, T/C (second compound 0.00316 µM, first compound 1 µM): 91.3%
- viability, T/C (second compound 0.00316 µM, first compound 3.16 µM): 93.5%
- viability, T/C (second compound 0.00316 µM, first compound 10 µM): 48.9%
- viability, T/C (second compound 0.01 µM, first compound 0.0316 µM): 92.9%
- viability, T/C (second compound 0.01 µM, first compound 0.1 µM): 77.4%
- viability, T/C (second compound 0.01 µM, first compound 0.316 µM): 83.3%
- viability, T/C (second compound 0.01 µM, first compound 1 µM): 97.1%
- viability, T/C (second compound 0.01 µM, first compound 3.16 µM): 62.5%
- viability, T/C (second compound 0.01 µM, first compound 10 µM): 56.9%
- viability, T/C (second compound 0.0316 µM, first compound 0.0316 µM): 93.1%
- viability, T/C (second compound 0.0316 µM, first compound 0.1 µM): 70.1%
- viability, T/C (second compound 0.0316 µM, first compound 0.316 µM): 77.4%
- viability, T/C (second compound 0.0316 µM, first compound 1 µM): 73.7%
- viability, T/C (second compound 0.0316 µM, first compound 3.16 µM): 71.7%
- viability, T/C (second compound 0.0316 µM, first compound 10 µM): 28.8%
- viability, T/C (second compound 0.1 µM, first compound 0.0316 µM): 68.7%
- viability, T/C (second compound 0.1 µM, first compound 0.1 µM): 54.2%
- viability, T/C (second compound 0.1 µM, first compound 0.316 µM): 59.9%
- viability, T/C (second compound 0.1 µM, first compound 1 µM): 62.8%
- viability, T/C (second compound 0.1 µM, first compound 3.16 µM): 57.6%
- viability, T/C (second compound 0.1 µM, first compound 10 µM): 30.4%
- viability, T/C (second compound 0.316 µM, first compound 0.0316 µM): 57.2%
- viability, T/C (second compound 0.316 µM, first compound 0.1 µM): 42.9%
- viability, T/C (second compound 0.316 µM, first compound 0.316 µM): 62.1%
- viability, T/C (second compound 0.316 µM, first compound 1 µM): 48.9%
- viability, T/C (second compound 0.316 µM, first compound 3.16 µM): 39%
- viability, T/C (second compound 0.316 µM, first compound 10 µM): 23.5%
- viability, T/C (second compound 1 µM, first compound 0.0316 µM): 49%
- viability, T/C (second compound 1 µM, first compound 0.1 µM): 28.6%
- viability, T/C (second compound 1 µM, first compound 0.316 µM): 32.2%
- viability, T/C (second compound 1 µM, first compound 1 µM): 35%
- viability, T/C (second compound 1 µM, first compound 3.16 µM): 30.6%
- viability, T/C (second compound 1 µM, first compound 10 µM): 13.5%
